Test results published in paper PMC10608985, “Retention Behavior of Anticancer Thiosemicarbazides in Biomimetic Chromatographic Systems and In Silico Calculations” (Molecules, 2023).

Columns and labels:
[1] = HPLC lipophilicity on IAM (immobilized artificial membrane, phosphatidylcholine) stationary phase; assay type: physicochemical; details: pH 7.4; for Log k IAM: Table S2; for log kw IAM: intercept, linear extrapolation to water; for log kw IAM / -S IAM: ACN/20 mM phosphate buffer; for -S IAM: slope of Soczewiński–Wachtmeister equation
Method: (§1) For the evaluation of the compounds the following stationary phases were used: C-18; biomimetic, IAM; cholesterol (Chol); immobilized proteins HSA and AGP. For the lipophilicity determination, MeOH (C-18, Chol) or ACN (IAM) were applied as the organic modifiers. The measurements were performed at pH 7.4 of the mobile phase. The regular changes in the retention of all solutes used as organic modifier content in the mobile phase on three studied stationary phases were found. It is expressed by the Soczewiński–Wachtmeister Equation (1):log k = log kw + S (% organic modifier)(1) where log kw—the intercept; S—the slope of regression curve. […] Log kw as well as S parameters are commonly applied as lipophilicity descriptors.
(§2) HPLC measurements were performed using a liquid chromatograph Knauer (Knauer, Berlin, Germany) with a dual pump, a 20 µL simple injection valve, and a UV–visible detector. The compounds were detected under UV light at 280 nm at room temperature. The retention time of an unretained solute (t0) was determined by the injection of a small amount of citric acid dissolved in water.
A Rexchrom IAM.PC.DD2 (12 μm, 100 × 4.6 mm, 300 Å) (Regis Technologies, Morton Grove, IL, USA) column was used as the stationary phase. The compounds were dissolved at a concentration of 0.5 mg × mL^−1 in MeOH. The mobile phases consisted of different volume fractions of ACN and 20 mM phosphate buffer; the aqueous phase maintained a pH = 7.4 (0.02 M KH2PO4, Na2HPO4 and 0.15 M KCl). The acetonitrile concentration ranged from 0.05 to 0.4 (v/v), depending on the structure of compound, at 0.05 intervals (Table S2 in the Supplementary Materials). The flow rate was 1 mL × min^−1.

[2] = HPLC lipophilicity on cholesterol (Chol) stationary phase; assay type: physicochemical; details: pH 7.4; for Log k Chol: Table S3; for log kw Chol: intercept, linear extrapolation to water; for log kw Chol / -S Chol: MeOH/20 mM acetate buffer; for -S Chol: slope of Soczewiński–Wachtmeister equation
Method: as §1, §2
Cogent 4 UDC Cholesterol (150 × 2.1 mm, 4 µm) MicroSolv Technology Corporation (Leland, NC, USA) column was used. The mobile phase consisted of different volume mixtures of MeOH as the organic modifier and 20 mM acetate buffer as the aqueous phase, to obtain pH = 7.4. The concentrations of the organic modifier were in the range from 0.3 to 0.8 (v/v) with step 0.05 or 0.1 (Table S3 in the Supplementary Materials). The flow rate was 0.35 mL × min^−1.

[3] = target: T1, human serum albumin (HSA) (Homo sapiens, UniProt P02768); assay: HPLC on immobilized HSA column, affinity and % plasma–protein binding; assay type: in vitro ADME; details: for log K HSA: binding equilibrium constant from calibration curve (Equation 8) of log k HSA; for fraction unbound: human, pH 7.4, % plasma–protein binding converted from log K HSA (Equation 10), read-out: %PPB HSA (converted); for log k HSA: retention on HSA column, 50 mM ammonium acetate pH 7.4 / propan-2-ol 85/15 (v/v)
T1 construct: purchased Chiralpac
Method: (§3) Measurements on HSA and AGP immobilized protein columns were carried out with […] isopropanol content in the aqueous mobile phase.
(§4) The standard calibration curve was used to predict log K values (K—binding equilibrium constant) of investigated compounds to HSA and AGP. Next, the log K values were converted into a percentage of plasma–protein binding (%PPB) of the compounds (Table 2). […] It is the lowest for compound 16 with -NO2 substituent, unsubstituted compound 1, and fluorine derivatives 2 and 9. In a group of […] derivatives in the same position of the phenyl ring, the %PPB to AGP increases with the increase in the atomic weight of the halogen atom and the lipophilicity of the molecule.
as §2
(§5) A human serum albumin (HSA) immobilized on the 5 µm silica gel column 100 × 3 mm (Chiralpac) and an α1-acid glycoprotein (AGP) immobilized on the 5 µm silica gel column 100 × 4 mm (Chiralpac) were used. The compounds were dissolved at 0.5 mg/mL concentration in 50% propan-2-ol and ammonium acetate solution (pH = 7.4) mixtures for HSA measurements. The mobile phase was composed of 50 mM ammonium acetate solution (pH = 7.4) and propan-2-ol at 85/15 (v/v) for AGP, respectively. The flow of mobile phases was 0.5 mL×min^−1. Log k values for the selected mobile phase were determined for all studied compounds and standard substances. The % protein plasma binding (% PPB) values were calculated from the calibration curve according to Valko et al..
(§6) Calibration of the protein columns: The column performance check and the calibration check were performed before measurements. The racemic mixture of warfarin was used for their performance evaluation. The following calibration set of drugs was applied: bromazepam, carbamazepine, diclofenac, nicardipine, nizatidine, piroxicam for HSA and bromazepam, chlorpromazine, imipramine, nicardipine, nizatidine, propranolol, and warfarin for AGP. The analytical standards were purchased from Sigma Aldrich Steinhen, Steinheim am Albuch, Germany). The drugs were dissolved at 0.5 mg/mL concentration in 50% propan-2-ol and ammonium acetate solution mixtures (pH = 7.4). The obtained log k values from HPLC were plotted against the log K values (K—binding equilibrium constant, log K—linearized PPB) based on the literature data for plasma–protein binding (%, PPB). The following relationships were obtained: log KHSA = 0.2513 (±0.0984) + 1.0525 (±0.1171) log k HSA(8) n=6, R=0.9761, R^2 = 0.9528, Radj2 = 0.9410, s = 0.1948 log KAGP = 0.1733 (±0.0574) + 0.8902 (±0.0787) log k AGP(9) n=7, R=0.9810, R^2 = 0.9623, Radj2 = 0.9548, s = 0.1113
(§7) Log K values were converted into %PPB using the following equation [15]:(10) %PPB=101×10^logK/1+10^logK

[4] = test system: α1-acid glycoprotein (AGP); assay: HPLC on immobilized AGP column, affinity and % plasma–protein binding; assay type: in vitro ADME, human; details: for log K AGP: binding equilibrium constant from calibration curve (Equation 9) of log k AGP; for fraction unbound: human, pH 7.4, % plasma–protein binding converted from log K AGP (Equation 10), read-out: %PPB AGP (converted); for log k AGP: retention on AGP column, 50 mM ammonium acetate pH 7.4 / propan-2-ol 85/15 (v/v)
Method: as §3, §4, §2, §5, §6, §7

[5] = design: method as in Kozyra et al. [31]; details: MeOH/20 mM acetate buffer, pH 7.4, ref Kozyra et al. [31], cited from earlier work; for log kw C-18: intercept of Soczewiński–Wachtmeister equation (water as mobile phase); for -S C-18: slope of Soczewiński–Wachtmeister equation

T1 sequence (P02768 25-609): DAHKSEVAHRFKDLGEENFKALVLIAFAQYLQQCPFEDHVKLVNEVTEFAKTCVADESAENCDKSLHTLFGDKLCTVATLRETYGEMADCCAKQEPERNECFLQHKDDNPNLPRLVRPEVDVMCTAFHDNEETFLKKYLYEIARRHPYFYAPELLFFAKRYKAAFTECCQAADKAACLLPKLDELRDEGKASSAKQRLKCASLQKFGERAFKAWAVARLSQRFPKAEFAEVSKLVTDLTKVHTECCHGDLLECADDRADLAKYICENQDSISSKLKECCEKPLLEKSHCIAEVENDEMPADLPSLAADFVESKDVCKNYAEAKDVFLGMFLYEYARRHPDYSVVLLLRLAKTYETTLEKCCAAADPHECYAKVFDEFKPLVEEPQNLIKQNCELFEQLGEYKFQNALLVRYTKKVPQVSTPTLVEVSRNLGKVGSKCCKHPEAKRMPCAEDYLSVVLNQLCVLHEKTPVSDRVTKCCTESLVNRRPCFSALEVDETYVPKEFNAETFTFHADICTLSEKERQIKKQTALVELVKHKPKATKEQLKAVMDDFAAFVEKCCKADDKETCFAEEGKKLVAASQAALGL

SMILES | Log k IAM ([1]; ACN 0.15 v/v in mobile phase) | Log k IAM ([1]; ACN 0.20 v/v in mobile phase) | Log k IAM ([1]; ACN 0.25 v/v in mobile phase) | Log k IAM ([1]; ACN 0.30 v/v in mobile phase) | Log k IAM ([1]; ACN 0.35 v/v in mobile phase) | log kw IAM [1] | -S IAM [1] | Log k Chol ([2]; MeOH 0.40 v/v in mobile phase) | Log k Chol ([2]; MeOH 0.50 v/v in mobile phase) | Log k Chol ([2]; MeOH 0.60 v/v in mobile phase) | Log k Chol ([2]; MeOH 0.80 v/v in mobile phase) | log kw Chol [2] | -S Chol [2] | log K HSA [3] | log k HSA [3] | log K AGP [4] | fraction unbound [4] | log k AGP [4] | log kw C-18 [5] | -S C-18 [5] | other results
O=C(COc1ccccc1)NNC(=S)Nc1cccc(F)c1 [Compound 5] | 0.565 | 0.312 | 0.024 | -0.274 | -0.441 | 1.4283 | 5.5312 | 0.699 | 0.184 | -0.057 | -1.065 | 2.4598 | 4.3726 | 1.1581 | 0.8615 | 0.5586 | 0.209 | 0.4328 | 2.4592 | 4.7921 | Log k IAM ([1]; ACN 0.05 v/v in mobile phase): 1.193; Log k IAM ([1]; ACN 0.10 v/v in mobile phase): 0.876; Log k Chol ([2]; MeOH 0.35 v/v in mobile phase): 0.957; Log k Chol ([2]; MeOH 0.45 v/v in mobile phase): 0.487; fraction unbound [3]: 0.056
O=C(COc1ccccc1)NNC(=S)Nc1cccc(Br)c1 [Compound 7] | 1.120 | 0.777 | 0.413 | -0.038 | -0.196 | 2.1389 | 6.8947 | 1.284 | 0.720 | 0.347 | -0.987 | 3.4508 | 5.4314 | 2.2501 | 1.8991 | 0.6968 | 0.159 | 0.5881 | 2.8451 | 4.8454 | Log k Chol ([2]; MeOH 0.45 v/v in mobile phase): 0.913; Log k Chol ([2]; MeOH 0.70 v/v in mobile phase): -0.309
O=C(COc1ccccc1)NNC(=S)Nc1ccccc1F [Compound 2] | 0.455 | 0.234 | -0.010 | -0.358 | -0.461 | 1.1961 | 4.8953 | 0.441 | -0.037 | -0.314 | -1.104 | 1.9241 | 3.7822 | 1.2775 | 0.9750 | 0.3986 | 0.278 | 0.2531 | 2.0774 | 4.3603 | Log k IAM ([1]; ACN 0.05 v/v in mobile phase): 0.968; Log k IAM ([1]; ACN 0.10 v/v in mobile phase): 0.692; Log k Chol ([2]; MeOH 0.30 v/v in mobile phase): 0.744; Log k Chol ([2]; MeOH 0.35 v/v in mobile phase): 0.656; fraction unbound [3]: 0.041
